Values of other authors as cited in patent US8440245B2, “Methods for making nutritional compositions comprising curcuminoids” (priority 2009, dated 2013).

What was measured:
[1] = percentage of ingested curcuminoid actually metabolized by the body
microtubule assembly = conditions: @ 40 μm

Row | Metabolic Recovery [1] [%] | SMILES | Inhibition of Microtubule Assembly (microtubule assembly) [% @]
1 | ~75 | O=C(/C=C/c1ccc(O)cc1)CC(=O)/C=C/c1ccc(O)cc1 [BDMC, bisdemethoxycurcumin] | 
2 |  | COc1cc(/C=C/C(=O)CC(=O)/C=C/c2ccc(O)c(OC)c2)ccc1O [Curcumin, curcumin] | 50
3 | ~50 | COc1cc(/C=C/C(O)=C/C(=O)/C=C/c2ccc(O)cc2)ccc1O [DMC, demethoxycurcumin] | 
